In patent US12194007B2, “Pharmaceutical composition for preventing or treating cancer, comprising gossypol, phenformin, and anticancer agent” (National Cancer Center, priority 2018, dated 2025):
Where two headings read alike, the source gives them in different places.

Tests used:
[1] = test system: BT549 cell line or MB231 cell line; assay: SRB cell proliferation assay, breast cancer cell lines; assay type: cell-based; conditions: for degree of cell proliferation with respect to the untreated control: gossypol 5 μM, phenformin 100 μM, third agent per Table 13 paclitaxel 50 nM, single, double or triple (FIG. 5A); for synergistic effect of anticancer action when mixed with gossypol and phenformin: breast cancer, named agent + gossypol 5 μM + phenformin 100 μM (Tables 13-15)
[2] = test system: PC3 cell line or DU145 cell line; assay: SRB cell proliferation assay, prostate cancer cell lines; assay type: cell-based
SNU449 or Huh7 cell line = assay: SRB cell proliferation assay, liver cancer cell lines; assay type: cell-based; conditions: gossypol 5 μM, phenformin 100 μM, cisplatin 1 μM, single or double (Table 22, FIG. 8A)
[3] = test system: ACHN cell line or CAKI-1 cell line; assay: SRB cell proliferation assay, kidney cancer cell lines; assay type: cell-based; conditions: gossypol 2.5 μM, phenformin 100 μM, sorafenib 10 μM, single, double or triple (Table 1, FIG. 1A)
Experimental: Specifically, while culturing the ACHN cell line or CAKI-1 cell line, which is a kidney cancer cell line, each cell was inoculated into a 96-well plate at a density of 5,000 to 20,000 cells/well depending on the amplification phase of the culture time. After inoculation, the anticancer agent mixtures of the following [Table 1] to [Table 3] were added to each well and cultured in a CO2 incubator for 24 hours. The anticancer agent mixture was prepared so that the final concentration of each anticancer agent can be appropriately added by mixing each at a stock concentration and then adding 100 μl each. After treatment with the anticancer agent, cells were further cultured for 48 hours, and then 10% (w/v) trichloroacetic acid (TCA) was added to each well and incubated at 4° C. for 60 minutes to fix the cells. The supernatant liquid other than the fixed cells was removed, the plate was washed 5 times with tap water, and then dried in air. After drying, 100 μl of 0.4% (w/v) sulforhodamine B buffer solution containing 1% acetic acid was added to each well, and left at room temperature for 5 minutes to stain the cells. After staining the cells, the cells were washed 5 times with 1% acetic acid to remove unstained dye and then dried in air. The colored dye was immobilized with 10 mM trizma base, and then absorbance was measured at 515 nm using a plate reader. As an untreated control, the degree of cell proliferation of a cell line cultured without treatment with an anticancer agent was measured, and the degree of cell proliferation of each experimental group with respect to the untreated control was calculated as a relative ratio and expressed as a percentage (%).

[4] = test system: SK-OV-3 or OVCAR3 cell line; assay: SRB cell proliferation assay, ovarian cancer cell lines; assay type: cell-based; conditions: for degree of cell proliferation with respect to the untreated control: gossypol 5 μM, phenformin 100 μM, single or double (Table 16, FIG. 6A)
[5] = test system: A549 cell line or H522 cell line; assay: SRB cell proliferation assay, non-small cell lung cancer cell lines; assay type: cell-based; conditions: irinotecan 1 μM; for degree of cell proliferation with respect to the untreated control: gossypol 5 μM, phenformin 100 μM, single, double or triple (Table 10, FIG. 4A)
[6] = test system: HT29 cell line or Colo205 cell line; assay: SRB cell proliferation assay, colorectal cancer cell lines; assay type: cell-based; conditions: for degree of cell proliferation with respect to the untreated control: gossypol 2.5 μM, phenformin 50 μM, irinotecan 1 μM, single, double or triple (Table 7, FIG. 3A)
[7] = test system: SNU638 cells xenograft tumor; assay: Gastric cancer mouse model, tumor growth; assay type: in vivo, Balb/c-nu mice; conditions: gossypol 80 mg/kg, phenformin 100 mg/kg, irinotecan 30 mg/kg, single, double or triple; vs solvent control (Table 27, FIGS. 12A, 12B)
Experimental: First, in order to make a lung cancer mouse model, 6 to 8 week old Balb/c-nu mice (Central Lab. Animal, Highland Heights, KY, USA) were prepared. In addition, 7.5×10^6 A549 cell line was cultured, and was injected subcutaneously to the prepared mice with a 1 ml syringe. Mice were reared for 1 week and divided into 4 groups of 8 mice each, and these were used as a control group or an experimental group as defined in [Table 24] and [Table 25]. The solvent or drug was orally administered to the mice of the solvent control group, the double drug treatment group, and the triple drug treatment group once a day, 6 days per week, and while administering intravenously irinotecan to the mice of the single treatment group with irinotecan once a day, 1 day per week, the mice were reared in the same environment for a total of 49 days. While breeding, the average was obtained by checking the weight and size of the tumor of the mouse group every 7 days. After injection of lung cancer cells, the initial tumor size was specified using a calliper. The tumor volume was calculated according to the following [Equation 1].
Specifically, the mouse model with the gastric cancer was prepared by the same method as the method of preparing the lung cancer mouse model in [Example 9], except that the mouse model with the gastric cancer was prepared by xenografting SNU638 cells (1.5×10^7). Then, the prepared mouse model with the gastric cancer was used as a control group or an experimental group as defined in the following [Table 27].

[8] = test system: UACC62 cell line or an A375 cell line; assay: SRB cell proliferation assay, melanoma cell lines; assay type: cell-based; conditions: gossypol 5 μM, phenformin 100 μM, vemurafenib 0.5 μM, single, double or triple (Table 4, FIG. 2A)
[9] = test system: A549 cell line xenograft tumor; assay: Lung cancer mouse model, tumor growth; assay type: in vivo, Balb/c-nu mice
Experimental: First, in order to make a lung cancer mouse model, 6 to 8 week old Balb/c-nu mice (Central Lab. Animal, Highland Heights, KY, USA) were prepared. In addition, 7.5×10^6 A549 cell line was cultured, and was injected subcutaneously to the prepared mice with a 1 ml syringe. Mice were reared for 1 week and divided into 4 groups of 8 mice each, and these were used as a control group or an experimental group as defined in [Table 24] and [Table 25]. […] While breeding, the average was obtained by checking the weight and size of the tumor of the mouse group every 7 days. After injection of lung cancer cells, the initial tumor size was specified using a calliper. The tumor volume was calculated according to the following [Equation 1].

[10] = test system: PC3 cells xenograft tumor; assay: Prostate cancer mouse model, tumor growth; assay type: in vivo, Balb/c-nu mice; conditions: gossypol 80 mg/kg, phenformin 100 mg/kg, doxorubicin 5 mg/kg, single, double or triple (Table 28, FIGS. 13A, 13B)
[11] = gossypol 5 μM, phenformin 100 μM, doxorubicin 1 nM, single, double or triple (Table 19, FIG. 7A)

Compound | degree of cell proliferation with respect to the untreated control [1] | degree of cell proliferation with respect to the untreated control [2, 11] | degree of cell proliferation with respect to the untreated control (SNU449 or Huh7 cell line) | degree of cell proliferation with respect to the untreated control [3] | degree of cell proliferation with respect to the untreated control ([4]; cisplatin 1 nM) | degree of cell proliferation with respect to the untreated control [5] | degree of cell proliferation with respect to the untreated control [6] | level of tumor growth [7] | degree of cell proliferation with respect to the untreated control [8] | synergistic effect of anticancer action when mixed with gossypol and phenformin [1] | other results
NC(N)=N/C(N)=N/CCc1ccccc1 [phenformin] | proliferation of cancer cells could be inhibited at a significant level | proliferation of cancer cells could be inhibited at a significant level | proliferation of cancer cells could be inhibited at a significant level | proliferation of cancer cells could be inhibited | proliferation of cancer cells could be inhibited at a significant level | proliferation of cancer cells could be inhibited at a significant level | proliferation of cancer cells could be inhibited at a significant level | a level similar to levels of tumor growth | proliferation of cancer cells could be inhibited at a significant level | – | –
Cc1cc2c(C(C)C)c(O)c(O)c(C=O)c2c(O)c1-c1c(C)cc2c(C(C)C)c(O)c(O)c(C=O)c2c1O [gossypol] | proliferation of cancer cells could be inhibited at a significant level | – | proliferation of cancer cells could be inhibited at a significant level | proliferation of cancer cells could be inhibited | proliferation of cancer cells could be inhibited at a significant level | proliferation of cancer cells could be inhibited at a significant level | proliferation of cancer cells could be inhibited at a significant level | a level similar to levels of tumor growth | proliferation of cancer cells could be inhibited at a significant level | – | degree of cell proliferation with respect to the untreated control [2]: proliferation of cancer cells could be inhibited at a significant level
Nc1ccn([C@@H]2O[C@H](CO)[C@@H](O)C2(F)F)c(=O)n1 [gemcitabine] | – | – | – | – | – | – | – | – | – | – | anticancer synergistic effect of the triple drug administration ([9]; gemcitabine 40 mg/kg with gossypol 80 mg/kg and phenformin 100 mg/kg (FIG. 10)): not observed; tumor growth (change in tumor size) ([9]; gemcitabine experiment: gossypol 80 mg/kg, phenformin 100 mg/kg, gemcitabine 40 mg/kg, single or double (Table 25, FIG. 10)): tumor growth at a level similar to that of the solvent administration group
COc1cccc2c1C(=O)c1c(O)c3c(c(O)c1C2=O)C[C@@](O)(C(=O)CO)C[C@@H]3O[C@H]1C[C@H](N)[C@H](O)[C@H](C)O1 [doxorubicin] | – | proliferation of cancer cells could be inhibited at a significant level | – | – | – | – | – | – | – | not exhibited | effect of inhibiting cell proliferation in the triple drug treatment group ([1]; cisplatin 1 μM or doxorubicin 1 μM mixed with gossypol 5 μM and phenformin 100 μM (Tables 14-15, FIGS. 5B, 5C)): level similar to that of the double drug treatment group; tumor growth level [10]: significantly inhibited tumor growth compared to the solvent control group
CCc1c2c(nc3ccc(OC(=O)N4CCC(N5CCCCC5)CC4)cc13)-c1cc3c(c(=O)n1C2)COC(=O)[C@]3(O)CC [irinotecan] | proliferation of cancer cells could be inhibited at a significant level | – | – | – | – | proliferation of cancer cells could be inhibited at a significant level | proliferation of cancer cells could be inhibited at a significant level | significantly decreased the level of tumor growth | – | can exhibit a synergistic effect | effect of inhibiting cell proliferation in the triple drug treatment group ([2]; docetaxel 50 nM or irinotecan 0.5 μM mixed with gossypol 5 μM and phenformin 100 μM (Tables 20-21, FIGS. 7B, 7C)): level similar to that of the double drug treatment group; synergistic effect of anticancer action when mixed with gossypol and phenformin ([4]; ovarian cancer, cisplatin 1 nM, paclitaxel 50 nM or irinotecan 0.5 μM + gossypol 5 μM + phenformin 100 μM): not exhibited; effect of inhibiting cell proliferation in the triple drug treatment group ([4]; paclitaxel 50 nM or irinotecan 0.5 μM mixed with gossypol 5 μM and phenformin 100 μM (Tables 17-18, FIGS. 6B, 6C)): level similar to that of the double drug treatment group; synergistic effect of anticancer action when mixed with gossypol and phenformin ([5]; lung cancer (NSCLC), cisplatin 20 μM or 5-FU 5 μM + gossypol 5 μM + phenformin 100 μM): can exhibit a synergistic effect; synergistic effect of anticancer action when mixed with gossypol and phenformin ([6]; colon cancer, irinotecan 1 μM (phenformin 50 μM) or cisplatin/capecitabine 10 μM (phenformin 75 μM) + gossypol 2.5 μM): can exhibit a synergistic effect
